Results on eleven compounds are retold here after ChEMBL document CHEMBL1201862, “PubChem BioAssay data set” (2004).

Test systems include SN12C; SF-268; SF-539; HCT-116; COLO 205; LOX IMVI; HCC 2998; RXF 393; SR; OVCAR-5; M14; HOP-92; UO-31; SW-620; HOP-62; MOLT-4; SK-OV-3; KM12; TK-10; ACHN.
Test in all cases: inhibition of tumour cell growth, NCI panel, 48 h

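Five concentrations, 48 hours, 96-well plates. At the GI50, growth is halved.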 Calls of active or inactive are those of the source. Rule as the data show it: active = GI50 up to about 1.1 µM and inactive = higher. Bounds are passed on as bounds.

As to `CC(=O)/C=C1\CC(=O)N(C)c2ccccc2N1`, the GI50 with SN12C is > 100 µM (inactive); in the test with SF-268, > 100 µM (inactive); with SF-539, > 100 µM (inactive); in the test on HCT-116, > 100 µM (inactive); in the test on COLO 205, 44.7 µM (inactive); with LOX IMVI it was > 100 µM (inactive). For the same compound, the GI50 in the test with HCC 2998, in the test with RXF 393, in the test on SR, in the test on OVCAR-5, with M14 and in the test with HOP-92 was > 100 µM (inactive) in each case. Moreover, the GI50 in the test on UO-31, with SW-620, in the test on HOP-62, in the test with MOLT-4, with SK-OV-3 and in the test with KM12 was > 100 µM (inactive) each time. The GI50 with TK-10 is > 100 µM (inactive).

Take `CCCCCCCC(=O)OCC1OC(n2cc(F)c(=O)[nH]c2=O)C(NC(=O)OCc2ccccc2)C(OC(=O)CCCCCCC)C1O` (stereo not drawn): the GI50 in the test on SN12C was 14.1 µM (inactive); with SF-268 it was 29 µM (inactive); in the test with SF-539, 26.3 µM (inactive); in the test with HCT-116, 30.1 µM (inactive); in the test on COLO 205, 26 µM (inactive); in the test with LOX IMVI, 15.1 µM (inactive). The GI50 was 35.2 µM (inactive) in the test with HCC 2998; 20.2 µM (inactive) with RXF 393; 16.7 µM (inactive) with SR; 25.4 µM (inactive) in the test with M14; 23.2 µM (inactive) in the test on HOP-92; 0.106 µM (active) in the test on UO-31. The GI50 with SW-620 is 35 µM (inactive); in the test with HOP-62 it was 71.8 µM (inactive); in the test with MOLT-4, 9.93 µM (inactive); with SK-OV-3, > 100 µM (inactive); in the test on KM12, 35.3 µM (inactive); in the test with ACHN, 39.2 µM (inactive). For the same compound, the GI50 with TK-10 is 38 µM (inactive).

Consider `CC(C)(C)c1ccc(C(O)c2ccc(C(C)(C)C)cc2)cc1`, for which the GI50 is 13.1 µM (inactive) with SN12C; 20 µM (inactive) in the test on SF-268; 17.3 µM (inactive) in the test with SF-539; 12.1 µM (inactive) with HCT-116; 13.6 µM (inactive) with COLO 205; 14.7 µM (inactive) with LOX IMVI. Also, the GI50 was 21 µM (inactive) with HCC 2998; 17.1 µM (inactive) with RXF 393; 23.9 µM (inactive) in the test on SR; 16.6 µM (inactive) in the test on OVCAR-5; 15 µM (inactive) in the test on M14; 12.6 µM (inactive) in the test on HOP-92. In addition, the GI50 in the test on UO-31 was 16 µM (inactive); in the test with SW-620, 14.6 µM (inactive); in the test with HOP-62 it was 16.3 µM (inactive); with MOLT-4, 17.6 µM (inactive); with SK-OV-3, 14.7 µM (inactive); with KM12, 15.6 µM (inactive). Also, the GI50 with ACHN is 16.6 µM (inactive); in the test on TK-10, 21.1 µM (inactive).

Regarding `CN(C)CC1CCCC1=O` (stereo not drawn), the GI50 in the test on SN12C was 1.06 µM (active); with SF-268 it was 5.85 µM (inactive); in the test with SF-539, 7.89 µM (inactive); in the test on HCT-116, 0.944 µM (active); in the test with COLO 205, 0.56 µM (active); with LOX IMVI it was 1.57 µM (inactive). The GI50 in the test with HCC 2998 is 2.17 µM (inactive); in the test with RXF 393, 2.55 µM (inactive); with SR it was 0.0479 µM (active); with OVCAR-5, 5.42 µM (inactive); with M14 it was 1.16 µM (inactive); with HOP-92, 0.973 µM (active). In addition, the GI50 is 9.38 µM (inactive) with UO-31; 0.2 µM (active) in the test on SW-620; 17.9 µM (inactive) in the test on HOP-62; 0.144 µM (active) in the test on MOLT-4; 15.3 µM (inactive) in the test with SK-OV-3; 1.66 µM (inactive) in the test on KM12. For the same compound, the GI50 was 3.03 µM (inactive) in the test on ACHN and 2.96 µM (inactive) with TK-10.

For the compound `CC(C)=CCN1c2ccc(Cl)cc2NC(=O)CC1C` (stereo not drawn), the GI50 was 19.6 µM (inactive) with SN12C; 34.7 µM (inactive) with SF-268; 20.5 µM (inactive) with SF-539; 18.4 µM (inactive) with HCT-116; 21.6 µM (inactive) with COLO 205; 17.8 µM (inactive) in the test on LOX IMVI. Besides, the GI50 in the test with HCC 2998 was 44.4 µM (inactive); in the test on RXF 393, 24.9 µM (inactive); in the test on SR it was 5.45 µM (inactive); in the test on OVCAR-5, 59.4 µM (inactive); with M14 it was 17.8 µM (inactive); in the test with HOP-92, 14.1 µM (inactive). The GI50 was 31.6 µM (inactive) in the test on UO-31; 34.4 µM (inactive) with SW-620; 23.5 µM (inactive) with HOP-62; 48.4 µM (inactive) in the test on MOLT-4; 34.7 µM (inactive) in the test with SK-OV-3; 28.3 µM (inactive) in the test on KM12. The GI50 in the test on ACHN was 19.1 µM (inactive); in the test on TK-10 it was 35.2 µM (inactive).

Consider `COC(=O)c1ccc(NC(=O)c2cc(OC)c(OC)c(OC)c2)cc1`, for which the GI50 in the test on SN12C is 1.85 µM (inactive); with SF-268, 8.05 µM (inactive); with SF-539, 1.21 µM (inactive); with HCT-116 it was 0.948 µM (active); in the test with COLO 205 it was 0.211 µM (active); in the test with LOX IMVI, 9.31 µM (inactive). Also, the GI50 in the test on HCC 2998 was 1.99 µM (inactive); with RXF 393 it was 39.4 µM (inactive); in the test on SR, 1.36 µM (inactive); in the test with M14, 4.28 µM (inactive); in the test with HOP-92 it was 6.65 µM (inactive); in the test on UO-31 it was 2.05 µM (inactive). Besides, the GI50 with SW-620 was 0.955 µM (active); in the test on HOP-62, 7.6 µM (inactive); in the test on MOLT-4, 3.93 µM (inactive); in the test on SK-OV-3, 11.3 µM (inactive); in the test on KM12 it was 1.02 µM (active); in the test on ACHN it was 2.71 µM (inactive). Further, the GI50 in the test on TK-10 is 2.34 µM (inactive).

Consider `CS(=O)(=O)c1n[nH]c2nc(O)nc(O)c12`, for which the GI50 in the test on SN12C, in the test on SF-268, in the test with SF-539, in the test on HCT-116, in the test with COLO 205 and in the test on LOX IMVI was > 10 µM (inactive) in each case. Further, the GI50 in the test with HCC 2998, in the test with RXF 393, in the test with SR, in the test on OVCAR-5, in the test on M14 and in the test on HOP-92 was > 10 µM (inactive) in each case. In addition, the GI50 in the test on SW-620, in the test with HOP-62, in the test on MOLT-4, in the test on SK-OV-3, in the test with KM12 and in the test on ACHN was > 10 µM (inactive) each time. For the same compound, the GI50 with TK-10 was > 10 µM (inactive).

As for `c1ccc2c(c1)nnn2CNc1ccc(N2CCOCC2)cc1`, the GI50 in the test with SN12C, with SF-268, in the test on SF-539, in the test on HCT-116, in the test on COLO 205 and in the test on LOX IMVI was > 100 µM (inactive) in each case. Further, the GI50 in the test on HCC 2998 is > 100 µM (inactive); with RXF 393 it was > 100 µM (inactive); in the test on SR, 43.3 µM (inactive); with M14 it was > 100 µM (inactive); with HOP-92, > 100 µM (inactive); in the test with UO-31, > 100 µM (inactive). Besides, the GI50 in the test with SW-620 is > 100 µM (inactive); in the test on HOP-62 it was > 100 µM (inactive); in the test on MOLT-4, > 100 µM (inactive); in the test with SK-OV-3 it was > 100 µM (inactive); with KM12 it was > 100 µM (inactive); with ACHN it was 67.3 µM (inactive). For the same compound, in the test on TK-10, the GI50 is > 100 µM (inactive).

With `CCOC(=O)c1csc(NC(=O)CCN2CCCCC2)n1`, the GI50 in the test with SF-539, in the test with COLO 205, with LOX IMVI, in the test on HCC 2998, in the test on RXF 393 and in the test with SR was > 100 µM (inactive) in each case. For the same compound, the GI50 with OVCAR-5, in the test on M14, in the test with HOP-92, in the test on UO-31, in the test with SW-620 and with HOP-62 was > 100 µM (inactive) in each case. The GI50 was 73.3 µM (inactive) with MOLT-4, > 100 µM (inactive) in the test with SK-OV-3, > 100 µM (inactive) with ACHN and > 100 µM (inactive) in the test on TK-10.

Turning to `COC(=O)Cc1c([C@H]2[C@H](CC(=O)OC)c3ccccc3N2C(=O)C(F)(F)F)[nH]c2ccccc12`, the GI50 with SN12C is 46.1 µM (inactive); in the test with SF-268, 27.4 µM (inactive); with SF-539, 29.5 µM (inactive); in the test with HCT-116, 15.5 µM (inactive); with COLO 205, 18.2 µM (inactive); in the test with LOX IMVI it was 26.4 µM (inactive). The GI50 in the test on HCC 2998 is 32.1 µM (inactive); in the test with RXF 393, 20 µM (inactive); in the test with SR, 14.7 µM (inactive); in the test on OVCAR-5, 18.9 µM (inactive); in the test on HOP-92 it was 32.3 µM (inactive); in the test on UO-31, 33.6 µM (inactive). For the same compound, the GI50 with SW-620 is 32.4 µM (inactive); in the test on HOP-62, 29 µM (inactive); in the test with MOLT-4, 9.02 µM (inactive); in the test with SK-OV-3, 28.5 µM (inactive); with ACHN it was 29.8 µM (inactive); with TK-10, 51.4 µM (inactive).

With `CC(C)C(=O)/C=C/c1ccc(Br)cc1`, the GI50 was 14.1 µM (inactive) in the test on SN12C; 23 µM (inactive) in the test on SF-268; 21.1 µM (inactive) with SF-539; 6.14 µM (inactive) in the test on HCT-116; 23.4 µM (inactive) with COLO 205; 17.3 µM (inactive) with LOX IMVI. Also, the GI50 with HCC 2998 was 17.1 µM (inactive); in the test on RXF 393, 18.3 µM (inactive); with SR, 7.28 µM (inactive); with OVCAR-5, 14.4 µM (inactive); with M14, 17.9 µM (inactive); with HOP-92 it was 16.4 µM (inactive). The GI50 in the test with UO-31 was 16.4 µM (inactive); with SW-620, 5.51 µM (inactive); in the test on MOLT-4, 19.2 µM (inactive); with SK-OV-3 it was 22.3 µM (inactive); with KM12, 13.8 µM (inactive); with ACHN, 12.7 µM (inactive). In addition, the GI50 with TK-10 was 16.9 µM (inactive).
